Assay results: US20250387417A1, “CANNABINOID DERIVATIVES AND COMPOSITIONS COMPRISING SAME” (CANNASOUL ANALYTICS LTD., priority 2022, published 2025)

Test system: MCP-1 secretion
Assay: Acute inflammation: LPS-induced MCP-1 secretion in human colon epithelial cells (ELISA)
Assay type: cell-based
Settings: 10 ng/ml LPS, 24 hours, ELISA of supernatants, FIG. 1
Method: The efficacy of the compounds according to certain embodiments of the present invention in the treatment of IBD was assessed. Human colon epithelial cells were thawed and cultured in suitable media at a final concentration of 4×10^5 cells per mL. The cells were then cultured and tested in triplicates for 48 hours. Following incubation, controls and test compounds were diluted in culture media to achieve the final assay concentration. Cells were treated with 10 ng/ml LPS with or without positive control/test compounds and incubated for 24 hours. Rosiglitazone at 7.2 μg/ml served as a positive control. Following incubation, the supernatants were collected, and the secretion levels of MCP-1 were measured by ELISA (R&D systems). Optical density was determined by ‘CLARIOStar-plus’® plate-reader. The chemokine concentration (pg/ml) was calculated using a standard curve.

Row | SMILES | inhibition of MCP-1 secretion | inhibitory effect on MCP-1 secretion compared among the test compounds
1 | CCCCCc1cc(O)c(CC=C(C)C)c(O)c1OC(C)=O [Compound 15] | effectively inhibited MCP-1 secretion in a statistically significant manner | most pronounced inhibitory effect on MCP-1 secretion
2 | CCCCCCc1cc(O)c(C/C=C(\C)CCC=C(C)C)c(O)c1OC(C)=O [(E)-3-(3,7-dimethylocta-2,6-dien-1-yl)-6-hexyl-2,4-dihydroxyphenyl acetate] | effectively inhibited MCP-1 secretion in a statistically significant manner | –
3 | CCCCCc1cc(O)c(C2C=C(C)CCC2C(C)(C)O)c(O)c1OC(C)=O (stereo not shown) [Compound 17] | effectively inhibited MCP-1 secretion in a statistically significant manner | –
